# System: tumor-infiltrating immune cells
# Assay: Flow cytometric analysis of immune cells in tumor and organs
# Type: in vivo, mice
# Method: (FIGS. 11A-B) Single cells were conducted from MC38 (FIG. 11A) or TC-1 (FIG. 11B) tumor tissues after 3 days of β-lap treatment. The frequency of CD11b+ Gr1+ cells were then analyzed by flow cytometry. (FIGS. 11C-D) C57BL/6 WT mice (n=5/group) were inoculated subcutaneously (s.c.) with 6×10^5 MC38 (FIG. 11C) or 1×10^5 TC-1 (FIG. 11D) cells and treated intratumorally (i.t.) with 0.3 (mg) of β-lap or vehicle on day 9, day 12, and day 15. Anti-Ly6G blocking Ab (200 μg) were intraperitoneally administered twice a week, starting on day 8. Tumor growth was monitored twice a week. Data are shown as mean±SEM from two to three independent experiments. **P<0.01, ***P<0.001, ****P<0.0001 determined by two-way ANOVA.
# (FIG. 18A) B16 NQO1 #1 cells were subcutaneously transplanted into C57BL/6 WT and Rag1KO mice (n=5/group), respectively. Tumor bearing mice were treated with β-lap (0.3 mg, i.t.) every other day for four times. (FIG. 18B) Changes of the immune cells in the tumor microenvironment 7 days after β-lap treatment. […] 7 days after the last treatment, tumor tissue was removed and digested, and immune cells were analyzed with flow cytometer (unpaired student t-test was used to analyze the significance of changes, *P<0.05, **P<0.01). […]
# 6×10^5 MC38 cells were subcutaneously transplanted into C57BL/6 mice (n=3/group). […] (FIG. 23B) Quantification of immune populations from vehicle and IB-DNQ treated tumors. […] CFSE labeled splenocytes were treated with lethal dose IB-DNQ for 4 h followed by washing and stimulation with anti-CD3 (1 μg/ml) and anti-CD28 (2 μg/ml) for 48 h, proliferative CD8 T cells were then analyzed by flow cytometry assay. […] 24 h later, cell death was analyzed by flow cytometry. […]
# Naïve (n=5/group) and IB-DNQ-cured MC38 tumor-free (n=7/group) C57BL/6 mice were re-challenged subcutaneously with 3×10^6 MC38 cells on the opposite site from the primary tumor 60 days after complete rejection. […] (FIG. 26F) DCs from LNs of tumor-free (TF) or tumor-bearing mice were stimulated with antigen induced by IB-DNQ (1 μM) for 5 h, then CD44 expression on DCs was assessed.
smiles,measurement,setting,value
"CC1(C)CCC2=C(O1)c1ccccc1C(=O)C2=O [β-lap, β-lapachone]",T cells in treated tumors,"MC38, 7 days after β-lap 0.3 mg i.t. two times",increase in CD4^+ and CD8^+ T cells
same,"CD45+ cells, CD8+ T cells and CD8+ T cell:Treg cell ratio in tumor tissues","MC38-OVA, 12 days after initial treatment",significant increase
same,tumor-infiltrating neutrophils (CD11b+Gr1+),after 3 days of β-lap treatment,significantly increased
